The text below walks through data of US11453697B1, “Cyclic di-nucleotide compounds as sting agonists” (Merck Sharp & Dohme Corp., priority 2015, dated 2022).

One test concerns the target full-length HAQ STING (Homo sapiens (Human), UniProt Q86WV6, G230A/H232R/R293Q/R71H). Description: 3H-cGAMP filtration binding assay (HAQ STING). Particulars: competition with tritiated cGAMP, HAQ STING membrane; read-out: EC50 (nM), 3H-cGAMP filtration binding assay for HAQ STING. The text has this:
The ability of compounds to bind STING is quantified by the ability to compete with tritiated cGAMP ligand for human STING receptor membrane using a radioactive filter-binding assay. The binding assay employs STING receptor obtained from Hi-Five cell membranes overexpressing full-length HAQ STING prepared in-house and tritiated cGAMP ligand also purified in-house.
The ability of compounds to bind STING is quantified by their ability to compete with tritiated cGAMP ligand for human STING receptor membrane using a radioactive filter-binding assay.
The basic HAQ STING filtration assay protocol is as follows:
Compound and membrane then preincubated for 60 min at RT to allow compound binding to equilibrate. Following equilibration, 8 nM of [^3H] c-GAMP ligand was prepared by diluting into assay buffer, and 50 uL of this working stock was then manually added to each well of the assay plate. […] The filter plates were then dried at 55° C. for 30 min using a pressurized VWR oven before 30 uL of Ultima GoldF scintillate was added to each well. Tritium levels for each reaction well were then measured using a PerkinElmer TopCount plate reader.
After normalization to controls, the percent activity for each compound concentration was calculated by measuring the amount of remaining radioactivity. The plot of percent activity versus the log of compound concentration was fit with a 4-parameter dose response equation to calculate EC50 values.

The subject of test [1] is IFN-β secretion in THP1 cells. The test can be described thus: IFN-β secretion in THP1 cell culture (5 h). Format: cell-based, human. Conditions: IFN-β secretion in THP1 cell culture, 5 h; compound at 30 μM; percent activation relative to 2′3′-cGAMP. A digest of the protocol: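 THP1 cells incubated with compound for 5 h at 37 °C, 5% CO2, and secreted IFN-β in supernatant quantified by AlphaLISA. Percent effect normalised to 30 uM cGAMP positive control and 0.3% DMSO. EC50 from 4-parameter fit.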

Sequence of full-length HAQ STING (Q86WV6 other isoform, or with tags, fused parts or gaps, stated change not applied): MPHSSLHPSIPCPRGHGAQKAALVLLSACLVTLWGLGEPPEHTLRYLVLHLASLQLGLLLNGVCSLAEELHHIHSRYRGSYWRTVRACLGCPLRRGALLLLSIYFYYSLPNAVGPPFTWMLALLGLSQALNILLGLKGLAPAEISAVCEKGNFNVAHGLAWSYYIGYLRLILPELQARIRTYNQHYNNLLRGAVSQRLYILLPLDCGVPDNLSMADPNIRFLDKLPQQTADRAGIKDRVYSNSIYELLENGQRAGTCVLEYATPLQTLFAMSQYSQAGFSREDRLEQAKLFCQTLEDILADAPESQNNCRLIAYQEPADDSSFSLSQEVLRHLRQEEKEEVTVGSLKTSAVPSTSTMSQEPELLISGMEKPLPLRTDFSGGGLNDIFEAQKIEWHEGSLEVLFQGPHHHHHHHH

Consider `Nc1nc2c(ncn2[C@@H]2S[C@@H]3COP(=O)(O)OC4C(O)[C@H](n5cnc6c(N)ncnc65)O[C@@H]4COP(=O)(O)OC2C3O)c(=O)[nH]1` (stereo in doubt) [Example 11, (5R,7R,8R,12aR,14R,15R,15aS,16S)-7-(2-amino-6-oxo-1,6-dihydro-9H-purin-9-yl)-14-(6-amino-9H-purin-9-yl)-15,16-dihydroxyoctahydro-12H-5,8-methanofuro[3,2-l][1,3,9,11,6,2,10] tetraoxathiadiphosphacyclotetradecine-2,10-diolate 2,10-dioxide], for which the EC50 at full-length HAQ STING amounted to 1.2 nM. The “% Effect at 30 μM relative to 2′3′-cGAMP” value in test [1] was found to be 169%.

Take `C#C[C@@]12COP(=O)(O)OC3C(O)[C@@H](COP(=O)(O)OC1C(O)[C@H](n1cnc4c(N)ncnc41)O2)O[C@H]3n1cnc2c(=O)[nH]c(N)nc21` (stereo in doubt) [Example 12, (5R,7R,8R,12aR,14R,15R,15aS,16R)-7-(2-amino-6-oxo-1,6-dihydro-9H-purin-9-yl)-14-(6-amino-9H-purin-9-yl)-12a-ethynyl-15,16-dihydroxyoctahydro-12H-5,8-methanofuro[3,2-l][1,3,6,9,11,2,10] pentaoxadiphosphacyclotetradecine-2,10-diolate 2,10-dioxide]: at full-length HAQ STING, the EC50 is less than 1 nM. The “% Effect at 30 μM relative to 2′3′-cGAMP” value in test [1] is on record as 89%.

Turning to `[N-]=[N+]=N[C@H]1[C@H]2OP(=O)(O)OC[C@H]3O[C@@H](n4cnc5c(O)ncnc54)[C@H](O)[C@@H]3OP(=O)(O)OC[C@H]1O[C@H]2n1cnc2c(=O)[nH]c(N)nc21` [Example 302, 2-amino-9-[(5S,7R,8R,12aR,14R,15R,15aS,16R)-16-azido-2,10,15-trihydroxy-14-(6-hydroxy-9H-purin-9-yl)-2,10-dioxidooctahydro-12H-5,8-methanofuro[3,2-l] [1,3,6,9,11,2,10]pentaoxadiphosphacyclo-tetradecin-7-yl]-1,9-dihydro-6H-purin-6-one], at full-length HAQ STING, the EC50 came out at 2.3 nM. For the same compound, the “% Effect at 30 μM relative to 2′3′-cGAMP” value in test [1] is 103%.

As to `Nc1nc2c(ncn2[C@@H]2O[C@@]34CO[C@H]3[C@H]2OP(=O)(O)OC[C@H]2O[C@@H](n3cnc5c(=O)[nH]cnc53)[C@H](O)[C@@H]2OP(=O)(O)OC4)c(=O)[nH]1` [Example 316, 2-amino-9-[(2aR,6aS,7R,8R,9aR,14R,14aS,15R)-5,7,12-trihydroxy-5,12-dioxido-8-(6-oxo-1,6-dihydro-9H-purin-9-yl)hexahydro-6aH,2a,14-(epoxymethano)furo [3,2-d]oxeto[2,3-k][1,3,7,9,2,8]tetraoxadiphosphacyclotridecin-15(2H,3H)-yl]-1,9-dihydro-6H-purin-6-one], the EC50 at full-length HAQ STING was found to be 2320 nM. Also, the “% Effect at 30 μM relative to 2′3′-cGAMP” value in test [1] came out at 12%.

With `Nc1nc2c(ncn2[C@@H]2O[C@@H]3COP(=O)(O)O[C@H]4[C@@H](F)[C@H](n5cnc6c(=O)[nH]cnc65)O[C@@H]4COP(=O)(O)O[C@@H]2C3)c(=O)[nH]1` [Example 294, 2-amino-9-[(5S,7R,8R,12aR,14R,15R,15aR)-15-fluoro-2,10-dihydroxy-2,10-dioxido-14-(6-oxo-1,6-dihydro-9H-purin-9-yl)octahydro-12H-5,8-methanofuro[3,2-l] [1,3,6,9,11,2,10]pentaoxadiphosphacyclo-tetradecin-7-yl]-1,9-dihydro-6H-purin-6-one], the EC50 on full-length HAQ STING was determined as 6.6 nM. Moreover, the “% Effect at 30 μM relative to 2′3′-cGAMP” value in test [1] is 84%.

On to `Nc1nc2c(ncn2[C@@H]2O[C@@H]3COP(=O)(S)O[C@H]4[C@@H](O)[C@H](n5ccc6c(N)ncnc65)O[C@@H]4COP(=O)(S)O[C@@H]2C3)c(=O)[nH]1` (single isomer, unassigned) [Example 77], for which the EC50 on full-length HAQ STING came to 161 nM. In test [1], the “% Effect at 30 μM relative to 2′3′-cGAMP” value was 39%.

As to `Nc1nc2c(ncn2[C@@H]2O[C@@H]3COP(=O)(O)OC4C(O)[C@H](c5cnn6c(=O)[nH]cnc56)O[C@@H]4COP(=O)(O)OC2C3O)c(=O)[nH]1` (stereo in doubt) [Example 321, 8-[(5R,7R,8R,12aR,14S,15S,15aS,16R)-7-(2-amino-6-oxo-1,6-dihydro-9H-purin-9-yl)-2,10,15,16-tetrahydroxy-2,10-dioxidooctahydro-12H-5,8-methanofuro[3,2-l][1,3,6,9,11,2,10]pentaoxadiphosphacyclotetradecin-14-yl]pyrazolo[1,5-a][1,3,5]triazin-4(3H)-one], at full-length HAQ STING, the EC50 was 112 nM. Moreover, the “% Effect at 30 μM relative to 2′3′-cGAMP” value in test [1] is recorded as 36%.

Regarding `Nc1nc2c(ccn2[C@@H]2O[C@@H]3COP(=O)(O)O[C@H]4[C@@H](O)[C@H](n5ccc6c(N)ncnc65)O[C@@H]4COP(=O)(O)O[C@@H]2[C@@H]3O)c(=O)[nH]1` [Example 37, 2-amino-7-[(5R,7R,8R,12aR,14R,15R,15aS,16R)-14-(4-amino-7H-pyrrolo[2,3-d]pyrimidin-7-yl)-2,10,15,16-tetrahydroxy-2,10-dioxidooctahydro-12H-5,8-methanofuro[3,2-l][1,3,6,9,11,2,10]pentaoxadiphosphacyclotetradecin-7-yl]-3,7-dihydro-4H-pyrrolo[2,3-d]pyrimidin-4-one], the EC50 at full-length HAQ STING is 620 nM. In addition, the “% Effect at 30 μM relative to 2′3′-cGAMP” value in test [1] was found to be 57%.

Take `Nc1nc2c(ncn2[C@@H]2O[C@@]34COC3[C@@H]2OP(=O)(O)OC[C@H]2O[C@@H](n3cnc5c(N)ncnc53)[C@@H](O)C2OP(=O)(O)OC4)c(=O)[nH]1` (stereo partly drawn) [Example 17, 2-amino-9-[(2aR,5S,6aS,7R,8R,9aR,12S,14R,14aS,15R)-8-(6-amino-9H-purin-9-yl)-5,7,12-trihydroxy-5,12-dioxidohexahydro-6aH-2a,14-(epoxymethano)furo[3,2-d]oxeto[2,3-k][1,3,7,9,2,8]tetraoxadiphosphacyclotridecin-15(2H,3H)-yl]-1,9-dihydro-6H-purin-6-one]: the EC50 at full-length HAQ STING was found to be 121 nM. The “% Effect at 30 μM relative to 2′3′-cGAMP” value in test [1] is recorded as 81%.

As to `Nc1nc2c(ncn2[C@@H]2O[C@@H]3COP(=O)(O)O[C@H]4[C@H](F)[C@H](n5cnc6c(=O)[nH]cnc65)O[C@@H]4COP(=O)(O)O[C@@H]2[C@@H]3F)c(=O)[nH]1` [Example 315, 2-amino-9-[(5R,7R,8S,12aR,14R,15S,15aR,16R)-15,16-difluoro-2,10-dihydroxy-2,10-dioxido-14-(6-oxo-1,6-dihydro-9H-purin-9-yl)octahydro-12H-5,8-methanofuro [3,2-l][1,3,6,9,11,2,10]pentaoxadiphosphacyclotetradecin-7-yl]-1,9-dihydro-6H-purin-6-one], the EC50 at full-length HAQ STING was found to be 49.9 nM. For the same compound, the “% Effect at 30 μM relative to 2′3′-cGAMP” value in test [1] came to 92%.

As to `Nc1nc2c(ncn2[C@@H]2O[C@@H]3COP(=O)(O)O[C@H]4[C@@H](O)[C@H](n5nnc6c(N)ncnc65)O[C@@H]4COP(=O)(O)O[C@@H]2[C@@H]3O)c(=O)[nH]1` [Example 55, 2-amino-9-[(5R,7R,8R,12aR,14R,15R,15aS,16R)-14-(7-amino-3H-[1,2,3]triazolo[4,5-d]pyrimidin-3-yl)-2,10,15,16-tetrahydroxy-2,10-dioxidooctahydro-12H-5,8-methanofuro[3,2-l][1,3,6,9,11,2,10]pentaoxadiphosphacyclotetradecin-7-yl]-1,9-dihydro-6H-purin-6-one], on full-length HAQ STING, the EC50 worked out at 55.3 nM. The “% Effect at 30 μM relative to 2′3′-cGAMP” value in test [1] was 83%.

Turning to `Nc1nc2c(ncn2[C@@H]2O[C@@H]3COP(=O)(O)O[C@H]4[C@@H](O)[C@H](n5cnc6c(N)ncnc65)O[C@@H]4COP(=O)(O)O[C@@H]2[C@@H]3O)c(=S)[nH]1` [Example 53, 2-amino-9-[(5R,7R,8R,12aR,14R,15R,15aS,16R)-14-(6-amino-9H-purin-9-yl)-2,10,15,16-tetrahydroxy-2,10-dioxidooctahydro-12H-5,8-methanofuro[3,2-l][1,3,6,9,11,2,10]pentaoxadiphosphacyclotetradecin-7-yl]-1,9-dihydro-6H-purine-6-thione], the EC50 at full-length HAQ STING worked out at 1.7 nM. In addition, in test [1], the “% Effect at 30 μM relative to 2′3′-cGAMP” value is 127%.

On to `Nc1ncc2ncn([C@@H]3O[C@@H]4COP(=O)(O)O[C@@H]5[C@H](O)[C@@H](COP(=O)(O)O[C@H]4[C@H]3O)O[C@H]5n3cnc4c(=O)[nH]c(N)nc43)c2n1` [Example 59, 2-amino-9-[(5R,7R,8R,12aR,14R,15R,15aS,16R)-14-(2-amino-9H-purin-9-yl)-2,10,15,16-tetrahydroxy-2,10-dioxidooctahydro-12H-5,8-methanofuro[3,2-l][1,3,6,9,11,2,10]pentaoxadiphosphacyclotetradecin-7-yl]-1,9-dihydro-6H-purin-6-one], for which the EC50 at full-length HAQ STING came out at 11.8 nM. The “% Effect at 30 μM relative to 2′3′-cGAMP” value in test [1] is 76%.

With `Nc1nc2c(ncn2[C@@H]2O[C@@H]3COP(=O)(S)O[C@H]4[C@H](F)[C@H](n5nnc6c(N)ncnc65)O[C@@H]4COP(=O)(S)O[C@@H]2C3)c(=O)[nH]1` (stereo partly drawn) [Example 138, 2-amino-9-[(5S,7R,8R,12aR,14R,15S,15aR)-14-(7-amino-3H-[1,2,3]triazolo[4,5-d]pyrimidin-3-yl)-15-fluoro-2,10-dioxido-2,10-disulfanyloctahydro-12H-5,8-methanofuro[3,2-l] [1,3,6,9,11,2,10]pentaoxadiphosphacyclotetra-decin-7-yl]-1,9-dihydro-6H-purin-6-one], the EC50 on full-length HAQ STING amounted to 739 nM. Further, the “% Effect at 30 μM relative to 2′3′-cGAMP” value in test [1] worked out at 51%.
